Patent publication US20100216779A1 (GLAXOSMITHKLINE LLC, priority 2007, published 2010)

What was measured:
[1] = system: LISN cell (mouse 3T3 fibroblasts transduced with human IGF-1R) tumors; assay: In vivo efficacy, mice bearing LISN cell tumors; details: for tumor growth inhibition at day 21: LISN (start approx. 362 mm^3)
Method: E. In Vivo Efficacy—Mouse Models
The efficacy of the compounds of Examples 57 and 58 were assessed together in an in vivo efficacy experiment performed on mice bearing LISN cell (mouse 3T3 fibroblasts transduced with human IGF-1R) tumors. Fifty six female nude mice bearing subcutaneous LISN cell tumors were measured for tumor size and body weight and block randomized into seven groups of eight mice with an equal average tumor volume of approximately 200 mm3. Mice were dosed with either vehicle (20% SBE pH3.5), Example 57 or Example 58. The dosing schedules for each compound were based on previous experiments with the compounds and doses chosen to give the highest tumor growth inhibition and a dose response. Example 58 was dosed at 30, 100 and 300 mg/kg QD for 21 days while Example 57 was dosed at 30 mg/kg QD for 21 days, 15 mg/kg BID for 21 days and 30 mg/kg QDx3 days/week for 3 weeks.
The tumors on mice being treated with vehicle grew with the expected exponential growth throughout the 21 day study. […] The lower dose of 30 mg/kg of Example 58 achieved 28% tumor growth inhibition.
The efficacy of the compounds of Examples 237 and 219 were assessed together in an in vivo efficacy experiment performed on mice bearing LISN cell (mouse 3T3 fibroblasts transduced with human IGF-1R) tumors. Sixty four female nude mice bearing subcutaneous LISN cell tumors were measured for tumor size and body weight and block randomized into eight groups of eight mice with an equal average tumor volume of approximately 362 mm^3. Mice were dosed with either vehicle (20% SBE pH3.5), Example 237 or Example 219. The dosing schedules for each compound were based on previous experiments with the compounds and doses chosen to give the highest tumor growth inhibition and a dose response. Example 237 was administered at 30 and 60 mg/kg QD for 21 days and 30 mg/kg BID for 21 days while Example 219 was administered at 50 and 100 mg/kg QD for 21 days, 25 and 50 mg/kg BID for 21 days.
The tumors on mice being treated with vehicle grew with the expected exponential growth throughout the 21 day study. […] The lower dose of 30 mg/kg QD of Example 237 achieved 15% tumor growth inhibition at day 21 (note: 2 animals were euthanized prior to the last measurement). […] This recovered to 3% by the end of dosing and fully recovered after dosing was concluded. […] This recovered fully within 4 days after the completion of dosing.

[2] = target: T1, human IGF-1R (NIH-3T3 cells over expressing human IGF-1R) (Homo sapiens, UniProt P08069); assay: IGF-1R cellular autophosphorylation (DELFIA); assay type: cell-based; details: IGF-1 stimulated
T1 construct: expressed in transfected cells; host or cells: NIH-3T3 (mouse fibroblasts)
T1 sequence (P08069 31-1367): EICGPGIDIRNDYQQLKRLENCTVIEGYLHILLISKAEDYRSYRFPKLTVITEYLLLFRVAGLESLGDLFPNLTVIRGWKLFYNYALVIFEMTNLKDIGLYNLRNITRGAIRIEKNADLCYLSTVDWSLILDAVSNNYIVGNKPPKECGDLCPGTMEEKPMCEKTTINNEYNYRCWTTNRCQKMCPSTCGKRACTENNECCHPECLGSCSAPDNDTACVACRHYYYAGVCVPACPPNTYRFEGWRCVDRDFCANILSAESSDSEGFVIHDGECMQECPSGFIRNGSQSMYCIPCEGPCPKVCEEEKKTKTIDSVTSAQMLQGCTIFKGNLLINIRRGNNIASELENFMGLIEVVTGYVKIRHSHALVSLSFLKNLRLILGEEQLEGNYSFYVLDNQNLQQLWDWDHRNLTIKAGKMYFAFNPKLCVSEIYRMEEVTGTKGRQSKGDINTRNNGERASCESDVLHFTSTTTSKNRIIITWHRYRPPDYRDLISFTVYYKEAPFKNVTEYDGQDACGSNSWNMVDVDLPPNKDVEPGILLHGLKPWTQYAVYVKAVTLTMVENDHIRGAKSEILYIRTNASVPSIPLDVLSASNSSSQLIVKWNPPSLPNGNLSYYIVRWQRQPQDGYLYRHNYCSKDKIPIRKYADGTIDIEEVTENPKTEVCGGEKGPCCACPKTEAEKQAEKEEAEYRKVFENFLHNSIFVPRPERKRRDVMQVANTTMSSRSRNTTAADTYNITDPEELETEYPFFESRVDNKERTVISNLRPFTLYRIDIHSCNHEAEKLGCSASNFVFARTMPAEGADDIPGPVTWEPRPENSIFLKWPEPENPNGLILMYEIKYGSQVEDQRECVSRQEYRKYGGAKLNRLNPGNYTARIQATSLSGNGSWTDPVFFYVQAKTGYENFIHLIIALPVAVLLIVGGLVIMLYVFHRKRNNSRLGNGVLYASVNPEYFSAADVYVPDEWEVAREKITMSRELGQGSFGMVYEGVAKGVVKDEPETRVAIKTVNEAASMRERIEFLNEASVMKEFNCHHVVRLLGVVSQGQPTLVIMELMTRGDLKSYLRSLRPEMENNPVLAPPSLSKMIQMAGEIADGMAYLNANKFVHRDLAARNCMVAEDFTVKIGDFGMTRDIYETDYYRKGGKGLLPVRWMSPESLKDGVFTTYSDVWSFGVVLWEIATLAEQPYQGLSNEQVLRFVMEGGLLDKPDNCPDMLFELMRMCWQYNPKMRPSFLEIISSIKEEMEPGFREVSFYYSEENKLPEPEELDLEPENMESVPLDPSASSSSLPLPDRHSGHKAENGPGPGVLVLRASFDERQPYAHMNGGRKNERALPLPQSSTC
In short: (§1)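 Autophosphorylation of IGF-1R or IR is measured in NIH-3T3 lines overexpressing each human receptor after 2 h compound pretreatment and a 15 min ligand challenge (IGF-1 30 ng/mL; insulin 3 ug/mL). Fluorescence is normalised to 100% stimulation.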

[3] = target: T2, IR (NIH-3T3 cells over expressing human IGF-1R or IR) (Homo sapiens, UniProt P06213); assay: IR cellular autophosphorylation (DELFIA); assay type: cell-based; details: NIH-3T3 cells over expressing IR, insulin stimulated
T2 construct: expressed in transfected cells; host or cells: NIH-3T3 (mouse fibroblasts)
T2 sequence (P06213 28-1382): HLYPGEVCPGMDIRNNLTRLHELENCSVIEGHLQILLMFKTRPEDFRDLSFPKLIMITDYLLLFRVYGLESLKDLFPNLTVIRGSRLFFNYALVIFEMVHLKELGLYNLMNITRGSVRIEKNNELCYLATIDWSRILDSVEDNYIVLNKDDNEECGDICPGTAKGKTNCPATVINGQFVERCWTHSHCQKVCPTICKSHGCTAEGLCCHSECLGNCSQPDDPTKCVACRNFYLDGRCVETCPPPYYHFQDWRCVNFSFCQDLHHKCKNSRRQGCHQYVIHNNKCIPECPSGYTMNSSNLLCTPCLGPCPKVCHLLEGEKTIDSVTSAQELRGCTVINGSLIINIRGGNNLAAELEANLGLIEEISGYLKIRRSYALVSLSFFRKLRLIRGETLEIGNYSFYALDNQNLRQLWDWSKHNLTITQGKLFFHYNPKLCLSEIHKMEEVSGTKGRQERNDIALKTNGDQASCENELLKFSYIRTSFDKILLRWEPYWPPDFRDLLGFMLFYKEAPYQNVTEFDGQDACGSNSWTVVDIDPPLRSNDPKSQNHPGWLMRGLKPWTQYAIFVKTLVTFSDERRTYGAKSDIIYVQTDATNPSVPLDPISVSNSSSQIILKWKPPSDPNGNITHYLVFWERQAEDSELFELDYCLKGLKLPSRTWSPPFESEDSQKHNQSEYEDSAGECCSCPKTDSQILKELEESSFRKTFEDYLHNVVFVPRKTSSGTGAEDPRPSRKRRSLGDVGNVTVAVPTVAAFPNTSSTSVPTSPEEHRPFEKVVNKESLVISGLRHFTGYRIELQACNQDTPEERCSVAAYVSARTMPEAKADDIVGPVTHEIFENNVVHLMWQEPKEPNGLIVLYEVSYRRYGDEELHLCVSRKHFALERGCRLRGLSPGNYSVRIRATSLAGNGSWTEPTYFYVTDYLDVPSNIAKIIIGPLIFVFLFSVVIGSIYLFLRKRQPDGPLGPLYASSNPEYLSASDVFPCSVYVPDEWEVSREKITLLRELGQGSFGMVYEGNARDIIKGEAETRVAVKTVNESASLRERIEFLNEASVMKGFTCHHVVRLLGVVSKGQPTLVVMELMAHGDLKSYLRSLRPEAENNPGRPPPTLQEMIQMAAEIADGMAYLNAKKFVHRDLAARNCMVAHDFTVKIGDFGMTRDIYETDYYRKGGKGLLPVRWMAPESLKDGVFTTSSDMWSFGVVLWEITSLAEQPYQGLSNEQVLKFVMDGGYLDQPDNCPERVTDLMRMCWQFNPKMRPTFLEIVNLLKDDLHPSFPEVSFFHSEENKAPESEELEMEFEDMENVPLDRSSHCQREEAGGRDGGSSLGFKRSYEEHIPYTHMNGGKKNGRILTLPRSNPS
In short: as §1

[4] = system: NCI-H929 (multiple myeloma); assay: Inhibition of cell proliferation, CellTiter-Glo, NCI-H929; assay type: cell-based; details: Homo sapiens, 72 h
In short: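 Cells were grown in medium with 10% FBS at 37° C, 5% CO2. Cell number was read as CellTiter-Glo luminescence (cellular ATP), with untreated wells as control.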

[5] = system: COLO205 (colon); assay: Inhibition of cell proliferation, CellTiter-Glo, COLO205; assay type: cell-based; details: Homo sapiens, COLO 205, 72 h
In short: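 Exponentially growing COLO205 cells in medium with 10% FBS were plated below 2000 cells/well at 37 °C, 5% CO2. Untreated wells served as controls.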

Row | SMILES | IC50 [2] | IC50 [3] | IC50 [4] | IC50 [5] | also measured
1 | CCc1cc(Nc2nccc(-c3c(-c4ccc(OC)c(C(=O)Nc5c(F)cccc5F)c4)nc4ccccn34)n2)c(OC)cc1N1CCC(N2CCN(S(C)(=O)=O)CC2)CC1 [Example 237, N-(2,6-difluorophenyl)-5-(3-{2-[(5-ethyl-2-(methyloxy)-4-{4-[4-(methylsulfonyl)-1-piperazinyl]-1-piperidinyl}phenyl)amino]-4-pyrimidinyl}imidazo[1,2-a]pyridin-2-yl)-2-(methyloxy)benzamide] | < 100 nM | < 100 nM | < 250 nM | < 250 nM | tumor growth inhibition at day 21 ([1]; 30 mg/kg BID for 21 days): 84%; tumor growth inhibition at day 21 ([1]; 30 mg/kg QD for 21 days, 2 animals euthanized prior to the last measurement): 15%; tumor growth inhibition at day 21 ([1]; 60 mg/kg QD for 21 days): 41%; body weight loss by the end of dosing ([1]; LISN, 30 mg/kg BID): 3%; initial body weight loss ([1]; LISN, 30 mg/kg BID): 6%; effect on body weight loss ([1]; LISN, other groups (30 and 60 mg/kg QD)): no effect
2 | CCOc1cc(N2CCC(CCS(C)(=O)=O)CC2)c(C)cc1Nc1nccc(-c2c(-c3ccc(OC)c(C(=O)Nc4c(F)cccc4F)c3)nc3ccccn23)n1 [Example 219, N-(2,6-difluorophenyl)-5-(3-{2-[(2-(ethyloxy)-5-methyl-4-{4-[2-(methylsulfonyl)ethyl]-1-piperidinyl}phenyl)amino]-4-pyrimidinyl}imidazo[1,2-a]pyridin-2-yl)-2-(methyloxy)benzamide] | < 100 nM | < 100 nM | < 250 nM | < 250 nM | tumor growth inhibition at day 21 ([1]; 25 mg/kg BID for 21 days): 16%; tumor growth inhibition at day 21 ([1]; 50 mg/kg BID for 21 days): 76%; tumor growth inhibition at day 21 ([1]; 50 mg/kg QD for 21 days): 29%; tumor growth inhibition at day 21 ([1]; 100 mg/kg QD for 21 days): 44%; time to full recovery of body weight after the completion of dosing ([1]; LISN, 25 mg/kg BID and 50 mg/kg BID): ≤ 4 days; body weight loss ([1]; LISN, 25 mg/kg BID for 21 days): 4%; body weight loss ([1]; LISN, 50 mg/kg BID for 21 days): 6%; body weight loss ([1]; LISN, 100 mg/kg and 50 mg/kg QD): no body weight loss
3 | COc1cc(N2CCC(N3CCN(S(C)(=O)=O)CC3)CC2)ccc1Nc1nccc(-c2c(-c3cccc(C(=O)Nc4c(F)cccc4F)c3)nc3ccccn23)n1 [Example 58, N-(2,6-difluorophenyl)-3-(3-{2-[(2-(methyloxy)-4-{4-[4-(methylsulfonyl)-1-piperazinyl]-1-piperidinyl}phenyl)amino]-4-pyrimidinyl}imidazo[1,2-a]pyridin-2-yl)benzamide] | < 100 nM | < 100 nM | < 250 nM | 250 to 1000 nM | tumor growth inhibition ([1]; LISN, 30 mg/kg QD for 21 days): 28%; tumor growth inhibition ([1]; LISN, 100 mg/kg QD for 21 days): 46%; tumor growth inhibition ([1]; LISN, 300 mg/kg QD for 21 days): 45%; effect on body weight loss ([1]; LISN, 30, 100 and 300 mg/kg QD, throughout the study): no effect
4 | COc1cc(N2CCC(N3CCCCC3)CC2)ccc1Nc1nccc(-c2c(-c3cccc(C(=O)Nc4c(F)cccc4F)c3)nc3cc(F)ccn23)n1 [Example 195, 3-[3-(2-{[4-(1,4′-bipiperidin-1′-yl)-2-(methyloxy)phenyl]amino}-4-pyrimidinyl)-7-fluoroimidazo[1,2-a]pyridin-2-yl]-N-(2,6-difluorophenyl)benzamide] | < 100 nM | < 100 nM | 250 to 1000 nM | 250 to 1000 nM | 
5 | COc1cc(C2CCN(CC(C)C)CC2)ccc1Nc1nccc(-c2c(-c3cccc(C(=O)Nc4c(F)cccc4F)c3)nc3ccccn23)n1 [Example 162, N-(2,6-difluorophenyl)-3-{3-[2-({2-(methyloxy)-4-[1-(2-methylpropyl)-4-piperidinyl]phenyl}amino)-4-pyrimidinyl]imidazo[1,2-a]pyridin-2-yl}benzamide] | < 100 nM | < 100 nM | < 250 nM | 250 to 1000 nM | 
